{
  "source": "patent US6046192A",
  "about": "“Phenylethanolaminotetralincarboxamide derivatives” (Kissei Pharmaceutical Co., Ltd., priority 1996, dated 2000)",
  "key": {"β2 -adrenergic receptor": {"molecular_target": "T1, β2 -adrenergic receptor (Rattus norvegicus, UniProt P10608)", "T1 construct": "longitudinal uterine muscle strips (about 15 mm in length and about 5 mm in width) free from the basal plate were prepared; from tissue; host or cells: longitudinal uterine muscle strips of pregnant SD rats (pregnancy day 21)", "T1 sequence (P10608 whole entry)": "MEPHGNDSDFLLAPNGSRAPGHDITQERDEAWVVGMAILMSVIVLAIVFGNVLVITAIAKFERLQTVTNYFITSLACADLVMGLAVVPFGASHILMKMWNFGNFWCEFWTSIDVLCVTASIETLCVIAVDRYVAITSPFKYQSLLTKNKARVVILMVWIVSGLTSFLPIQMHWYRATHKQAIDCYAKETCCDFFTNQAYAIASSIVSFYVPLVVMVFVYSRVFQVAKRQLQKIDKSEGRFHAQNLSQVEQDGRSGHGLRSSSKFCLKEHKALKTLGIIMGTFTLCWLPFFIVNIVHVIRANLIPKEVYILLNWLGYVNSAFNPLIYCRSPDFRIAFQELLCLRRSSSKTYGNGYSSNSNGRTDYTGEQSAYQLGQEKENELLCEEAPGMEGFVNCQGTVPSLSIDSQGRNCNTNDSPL", "test": "Spontaneous contractions of isolated pregnant rat myometrium (β2-adrenergic receptor stimulating activity)", "settings": "isolated pregnant rat uterus (SD, pregnancy day 21), Magnus method; read-out: EC50 value (activity to relax 50% of the spontaneous contractions of rat myometrium)", "method": "Thus, the compounds of the present invention have a markedly potent β2 -adrenergic receptor stimulating effect and therefore are remarkably useful as β2 -adrenergic receptor stimulating agents.\nAction of Drugs on the Spontaneous Contractions of Isolated Pregnant Rat Myometrium\nThe uteri of pregnant SD rats (pregnancy day 21) were isolated and longitudinal uterine muscle strips (about 15 mm in length and about 5 mm in width) free from the basal plate were prepared. The experiment was conducted according to the Magnus method. The preparations with a tension of 1 g were exposed to Locke-Ringer solution maintained at 37° C. and gassed with a mixture of 95% of oxygen and 5% of carbon dioxide. Spontaneous contractions of myometrium were induced isometrically via a pressure transducer and recorded on a rectigram. The drug efficacy was evaluated as 50% inhibitory drug concentration (i.e., EC50 value) by comparing the total degree of uterine contraction during 5 minutes before the addition of the drug with the total degree of uterine contraction during 5 minutes after the addition of the drug."}, "β1 -adrenergic receptor": {"system": "β1 -adrenergic receptor", "test": "Atrial contraction of isolated rat atrium (β1-adrenergic receptor stimulating activity)", "settings": "isolated rat atrium (SD male), Magnus method", "method": "Thus, the compounds of the present invention have a markedly weaker β1 -adrenergic receptor stimulating effect in comparison with the aforementioned β2 -adrenergic receptor stimulating effect.\nAction of Drugs on the Atrial Contraction of Isolated Rat Atrium\nThe atria of SD male rats (350 to 400 g in body weight) were isolated and the experiment was conducted according to the Magnus method. The preparations with a tension of 1 g were exposed to Krebs-Henseleit solution maintained at 37° C. and gassed with a mixture of 95% of oxygen and 5% of carbon dioxide. The atrial contraction was induced isometrically via a pressure transducer and recorded on a rectigram. After addition of the drug, its efficacy was evaluated as drug concentration which increases 20 beats per minute of heart rate (i.e., EC20 value)."}, "ICR mice": {"system": "ICR mice", "test": "Acute toxicity", "type": "in vivo", "settings": "female ICR mice, intravenous, 50 mg/kg in saline", "method": "To 4 female ICR mice of 4 weeks age was administered intravenously 2-[(2S)-2-[[(2R)-2-hydroxy-2-(4-hydroxyphenyl)-ethyl]amino]-1,2,3,4-tetrahydronaphthalen-7-yloxy]-N,N-dimethylacetamide dissolved in saline at dose of 50 mg/kg. No death of animals was observed during 24 hours after the administration."}},
  "data": [
    {"smiles": "CN(C)C(=O)COc1ccc2c(c1)C[C@@H](NC[C@H](O)c1ccc(O)cc1)CC2", "note": "[2-[(2S)-2-[[(2R)-2-Hydroxy-2-(4-hydroxyphenyl)ethyl]-amino]-1,2,3,4-tetrahydronaphthalen-7-yloxy]-N,N-dimethylacetamide]", "values": [
      {"measurement": "EC50", "setting": "β2 -adrenergic receptor", "value": 15, "unit": "nM"},
      {"measurement": "EC20 value (activity to increase rat heart rate 20 beats per minute)", "setting": "β1 -adrenergic receptor", "value": "1.6×10^-6 molar concentration"},
      {"measurement": "death of animals during 24 hours after the administration", "setting": "ICR mice", "value": "No death"}
    ]}
  ]
}
